Data: US20130096119A1, “Isoquinolin-3-Ylurea Derivatives” (priority 2010, published 2013)
Converted amounts (≈) assume the structure as drawn.

System: S. pneumoniae ATCC 49619
Experiment: Minimal inhibitory concentration (MIC) by microdilution method (CLSI M7-A7)
Type: cell-based, Streptococcus pneumoniae
Conditions: Streptococcus pneumoniae, ATCC49619, cation-adjusted Mueller-Hinton Broth supplemented with 3% (v/v) lysed horse blood
How it was run: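 Broth microdilution per CLSI M7-A7 in cation-adjusted Mueller-Hinton broth, supplemented with 3% (v/v) lysed horse blood for S. pneumoniae; MIC reported in mg/l.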

Compound	MIC [µg/mL]
CCNC(=O)Nc1cc2cc(NCCOCc3ccccc3)cc(C)c2cn1.Cl [Example 132, 1-[6-(2-benzyloxy-ethylamino)-8-methyl-isoquinolin-3-yl]-3-ethyl-urea hydrochloride]	8
CCNC(=O)Nc1cc2cccc(Nc3ccccc3)c2cn1 [Example 169, 1-ethyl-3-(8-phenylamino-isoquinolin-3-yl)-urea]	1 (≈ 3.26 µM)
CCNC(=O)Nc1cc2c(-c3ccncc3)ccc(C)c2cn1 [Example 61, 1-ethyl-3-(8-methyl-5-pyridin-4-yl-isoquinolin-3-yl)-urea]	1 (≈ 3.26 µM)
CCNC(=O)Nc1cc2cccc(Nc3ccc(C)c(C(=O)OC)c3)c2cn1 [Example 264, 5-[3-(3-ethyl-ureido)-isoquinolin-8-ylamino]-2-methyl-benzoic acid methyl ester]	8 (≈ 21.1 µM)
CCNC(=O)Nc1cc2cccc(Nc3cccc(CC(=O)O)c3)c2cn1 [Example 209, {3-[3-(3-ethyl-ureido)-isoquinolin-8-ylamino]-phenyl}-acetic acid]	4 (≈ 11 µM)
Cc1ccc(-c2ccncc2)c2cc(NC(=O)NC3CC3)ncc12 [Example 139, 1-cyclopropyl-3-(8-methyl-5-pyridin-4-yl-isoquinolin-3-yl)-urea]	4 (≈ 12.6 µM)
CCNC(=O)Nc1cc2cccc(Nc3ccc(C(=O)O)cc3)c2cn1 [Example 202, 4-[3-(3-ethyl-ureido)-isoquinolin-8-ylamino]-benzoic acid]	1 (≈ 2.85 µM)
CCNC(=O)Nc1cc2cc(-c3ccc(CNC(C)=O)cc3)cc(C)c2cn1 [Example 81, N-{4-[3-(3-ethyl-ureido)-8-methyl-isoquinolin-6-yl]-benzyl}-acetamide]	0.5 (≈ 1.33 µM)
CCNC(=O)Nc1cc2cc(-c3ccncc3F)cc(C)c2cn1 [Example 97, 1-ethyl-3-[6-(3-fluoro-pyridin-4-yl)-8-methyl-isoquinolin-3-yl]-urea]	2 (≈ 6.17 µM)
CCNC(=O)Nc1cc2cc(NC(=O)c3cncs3)cc(C)c2cn1 [Example 62, thiazole-5-carboxylic acid [3-(3-ethyl-ureido)-8-methyl-isoquinolin-6-yl]-amide]	0.25 (≈ 0.703 µM)
CCNC(=O)Nc1cc2cc(-c3cccc4cnccc34)cc(C)c2cn1 [Example 104, 1-ethyl-3-(8′-methyl-[5,6′]biisoquinolinyl-3′-yl)-urea]	8 (≈ 22.4 µM)
CCNC(=O)Nc1cc2cc(NCc3ccncc3)cc(C)c2cn1.Cl [Example 122, 1-ethyl-3-{8-methyl-6-[(pyridin-4-ylmethyl)-amino]-isoquinolin-3-yl}-urea hydrochloride]	8
CCNC(=O)Nc1cc2c(-c3ccncn3)ccc(Nc3ccc(C)nc3)c2cn1 [Example 287, 1-ethyl-3-[8-(6-methyl-pyridin-3-ylamino)-5-pyrimidin-4-yl-isoquinolin-3-yl]-urea]	0.25 (≈ 0.626 µM)
CCNC(=O)Nc1cc2cc(NCC(C)C)cc(C)c2cn1.Cl [Example 136, 1-ethyl-3-(6-isobutylamino-8-methyl-isoquinolin-3-yl)-urea hydrochloride]	16
CCNC(=O)Nc1cc2c(-c3ccc(O)cc3)ccc(Nc3cccnc3)c2cn1 [Example 228, 1-ethyl-3-[5-(4-hydroxy-phenyl)-8-(pyridin-3-ylamino)-isoquinolin-3-yl]-urea]	2 (≈ 5.01 µM)
CCNC(=O)Nc1cc2c(CN3CCOCC3)ccc(Nc3cccc(OC)n3)c2cn1 [Example 275, 1-ethyl-3-{8-[(6-methoxy-pyridin-2-yl)amino]-5-(morpholin-4-ylmethyl)-isoquinolin-3-yl}-urea]	4 (≈ 9.16 µM)
CCNC(=O)Nc1cc2cc(NCc3ccc(S(=O)(=O)NC)cc3)cc(C)c2cn1 [Example 189, 4-{[3-(3-ethyl-ureido)-8-methyl-isoquinolin-6-ylamino]-methyl}-N-methyl-benzenesulfonamide]	8 (≈ 18.7 µM)

Compound	MIC [µg/mL]
CCNC(=O)Nc1cc2cccc(Nc3ncccn3)c2cn1 [Example 152, 1-ethyl-3-[8-(pyrimidin-2-ylamino)-isoquinolin-3-yl]-urea]	4 (≈ 13 µM)
CCNC(=O)Nc1cc2c(-c3ccncc3)ccc(Nc3cccnc3)c2cn1 [Example 227, 1-ethyl-3-[5-pyridin-4-yl-8-(pyridin-3-ylamino)-isoquinolin-3-yl]-urea]	0.125 (≈ 0.325 µM)
CCNC(=O)Nc1cc2c(-c3ccnc(C)c3)ccc(Nc3ccc(C)nc3)c2cn1 [Example 245, 1-ethyl-3-[5-(2-methyl-pyridin-4-yl)-8-(6-methyl-pyridin-3-ylamino)-isoquinolin-3-yl]urea]	0.5 (≈ 1.21 µM)
CCNC(=O)Nc1cc2c(-c3c[nH]cn3)ccc(C)c2cn1.Cl [Example 280, 1-ethyl-3-[5-(1H-imidazol-4-yl)-8-methyl-isoquinolin-3-yl]urea hydrochloride]	1
CCNC(=O)Nc1cc2cc(-c3ccc(C(N)=O)cc3)cc(C)c2cn1 [Example 30, 4-[3-(3-ethyl-ureido)-8-methyl-isoquinolin-6-yl]-benzamide]	1 (≈ 2.87 µM)
CCNC(=O)Nc1cc2cc(-c3cccc(F)c3)cc(C)c2cn1 [Example 88, 1-ethyl-3-[6-(3-fluoro-phenyl)-8-methyl-isoquinolin-3-yl]-urea]	2 (≈ 6.18 µM)
CCNC(=O)Nc1cc2cccc(Cn3cc(C)cn3)c2cn1 [Example 300, 1-ethyl-3-[8-(4-methyl-pyrazol-1-ylmethyl)-isoquinolin-3-yl]-urea]	4 (≈ 12.9 µM)
CCNC(=O)Nc1cc2cccc(-c3ccc(C(=O)O)cc3)c2cn1 [Example 123, 4-[3-(3-ethyl-ureido)-isoquinolin-8-yl]-benzoic acid]	4 (≈ 11.9 µM)
CCNC(=O)Nc1cc2cc(NCc3ccccc3)cc(C)c2cn1 [Example 58, 1-(6-benzylamino-8-methyl-isoquinolin-3-yl)-3-ethyl-urea]	8 (≈ 23.9 µM)
CCNC(=O)Nc1cc2c(CN3CCN(C)CC3)ccc(Nc3cccc(OC)n3)c2cn1 [Example 276, 1-ethyl-3-[8-(6-methoxy-pyridin-2-ylamino)-5-(4-methyl-piperazin-1-ylmethyl)-isoquinolin-3-yl]-urea]	4 (≈ 8.9 µM)
CCNC(=O)Nc1cc2cccc(Nc3cccc(C(N)=O)c3)c2cn1.Cl [Example 254, 3-[3-(3-ethyl-ureido)-isoquinolin-8-ylamino]-benzamide hydrochloride]	1
CCNC(=O)Nc1cc2cc(N)cc(C)c2cn1 [Example 54, 1-(6-amino-8-methyl-isoquinolin-3-yl)-3-ethyl-urea]	16 (≈ 65.5 µM)
CCNC(=O)Nc1cc2c(F)c(-c3cccnc3)cc(-c3cccnc3)c2cn1 [Example 53, 1-ethyl-3-(5-fluoro-6,8-di-pyridin-3-yl-isoquinolin-3-yl)-urea]	8 (≈ 20.6 µM)
CCNC(=O)Nc1cc2c(F)c(NCc3ccccc3)cc(C)c2cn1 [Example 57, 1-(6-benzylamino-5-fluoro-8-methyl-isoquinolin-3-yl)-3-ethyl-urea]	0.5 (≈ 1.42 µM)
CCNC(=O)Nc1cc2cc(NC(=O)c3cccc(N(C)C)c3)cc(C)c2cn1 [Example 118, 3-dimethylamino-N-[3-(3-ethyl-ureido)-8-methyl-isoquinolin-6-yl]-benzamide]	0.06 (≈ 0.153 µM)
CCNC(=O)Nc1cc2c(-c3cccc(CO)c3)ccc(C)c2cn1 [Example 12, 1-ethyl-3-[5-(3-hydroxymethyl-phenyl)-8-methyl-isoquinolin-3-yl]-urea]	8 (≈ 23.9 µM)

Same assay, conditions: cation-adjusted Mueller-Hinton Broth supplemented with 3% (v/v) lysed horse blood

Compound	MIC for S. pneumoniae ATCC 49619 [µg/mL]
1-ethyl-3-[8-(5-hydroxymethyl-imidazol-1-ylmethyl)-isoquinolin-3-yl]-urea and 1-ethyl-3-[8-(4-hydroxymethyl-imidazol-1-ylmethyl)-isoquinolin-3-yl]-urea [Example 293]	4
